Key:
M1 mAChR = target: T1, M1 mAChR (Homo sapiens, UniProt P11229); test: β-arrestin 2 recruitment assay (BRET); format: cell-based
T1 construct: expressed in transfected cells; host or cells: parental FlpIn CHO cells (transient, PEI)
T1 sequence (P11229 1-460): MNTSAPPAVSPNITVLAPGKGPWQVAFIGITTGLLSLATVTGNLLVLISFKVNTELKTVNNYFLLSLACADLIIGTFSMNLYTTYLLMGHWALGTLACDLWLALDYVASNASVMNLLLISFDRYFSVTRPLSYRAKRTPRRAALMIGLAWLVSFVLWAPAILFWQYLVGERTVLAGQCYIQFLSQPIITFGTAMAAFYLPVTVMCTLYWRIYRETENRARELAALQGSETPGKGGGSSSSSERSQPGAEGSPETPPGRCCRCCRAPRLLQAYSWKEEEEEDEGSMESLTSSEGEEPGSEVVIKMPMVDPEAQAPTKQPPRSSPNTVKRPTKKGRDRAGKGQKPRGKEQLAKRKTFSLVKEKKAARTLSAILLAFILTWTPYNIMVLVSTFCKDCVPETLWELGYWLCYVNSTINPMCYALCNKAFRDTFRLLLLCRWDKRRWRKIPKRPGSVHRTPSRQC
Text: (§1) The compounds were then fully characterised in two functional assays (Figure 2C and D); the Gq-coupled IP1 accumulation assay (Figure S2), which was used for the initial screening of the compounds, and a β-arrestin 2 recruitment assay (Figure S3). The operational efficacy (τB) values for the modulators and their functional cooperativity estimates with ACh (logαβACh) at both signalling pathways were estimated by applying an operational model of allosterism and agonism to the data [Eq. (3)],[16] and are listed in Table 5.
Parental FlpIn CHO cells were plated at 30000 cells/well of 96-well white Culture plates (Perkin Elmer Life Sciences) and transiently transfected with 10 ng/well of M1 Renilla luciferase (Rluc)-8 and 40 ng/well of YFP-β-arrestin 2 using linear polyethyleneimine (PEI/DNA ratio 6:1) diluted in 150 mM NaCl. DNA:PEI complexes were formed by 15 min incubation at room temperature then added to the cells and incubated at 37°C for 24 h prior to use. Cells were then washed and equilibrated in Hanks’ balanced salt solution for 1 h at 37°C. Coelenterazine h at a final concentration of 5 μM was added to each well, followed by addition of increasing concentrations of ACh in the absence or presence of increasing concentrations of each modulator. Lumines-cence and fluorescence signals were measured 5 min after agonist stimulation using the LUMIstar Omega plate reader (BMG LabTech, Offenburg, Germany). […] Data were then normalized to the maximum response to ACh.
(§2) Functional interaction studies between ACh and allosteric modulators in IP1 and β-arrestin 2 recruitment assays were analysed according to a three-parameter logistic equation or the following operational model of allosterism and agonism [Eq. (3)].[16] E=Basal+(Em−Basal)([A](KB+αβ[B])+τB[B]EC50)^n/EC50n(KB+[B])^n+([A](KB+αβ[B])+τB[B]EC50)^n where Em is the maximal possible system response, and Basal is the response in the absence of agonist. [A] and [B] are concentrations of orthosteric and allosteric ligands, respectively. KB is the equilibrium dissociation constant of allosteric ligand, and EC50 is the concentration of orthosteric agonist required to achieve half maximal response. α and β represent the magnitude of the allosteric effects on orthosteric ligand affinity and efficacy, respectively; τB is the efficacy of allosteric ligand, and n is the slope factor of the transducer function that links occupancy to response.

hM1 mAChR [1] = target: T2, hM1 mAChR (Homo sapiens, UniProt P11229); test: IP1 accumulation assay (ACh concentration-response curves in absence or presence of modulator); format: cell-based
T2 construct: expressed in transfected cells
T2 sequence (P11229 1-460): T1 sequence (P11229 1-460)
Experimental: Functional activity of the synthesized analogues as racemic mixtures was investigated in IP1 accumulation assays at the M1 mAChR, as described previously.[13–14] ACh concentration-response curves were generated in the absence or presence of a 1 and 10 μM concentration of each modulator. The change in baseline activity (Δbaseline) is an approximate measure of direct allosteric agonism (τB), whereas the pEC50 shift (ΔpEC50) is an approximate measure of functional cooperativity (αβ) of each modulator with ACh in the investigated signalling pathway. We aimed to identify modulators with various degrees of allosteric agonism and modulatory effects on ACh response, as these could generate distinct in vivo outcomes for applications in different conditions in the CNS or gastrointestinal (GI) tract.[[10g,h,j]]
as §1
FlpIn CHO cells stably expressing the hM1 mAChR were seeded at 25000 per well of 96-well transparent cell culture plates and grown overnight. […] Cells were then stimulated with increasing concentration of ACh in the absence or presence of increasing concentrations of each modulator for 1 h at 37°C. […] Seven μL of cell lysates were transferred into wells of 384-well Proxiplates (Perki-nElmer Life Sciences), and IP1 levels were measured using the IP-One assay kit (Cisbio, Codolet, France). […] The signal was expressed as the HTRF ratio, interpolated from the standard curve, and normalized to the maximum response to ACh.
Changes in both baseline and pEC50 were quantified by subtracting the estimates at each M1 PAM concentrations with the control values. Propagation of the error on baseline and potency values were determined as follows [Eq. (1)]: σΔ=σPAM2+σcont.2 where σΔ is the standard error of the mean (SEM) for the change in value, and σPAM and σcont. are the SEM from the three-parameter logistic equation analysis in presence or absence of M1 PAM, respectively.
as §2

hM1 mAChR [2] = target: T2, hM1 mAChR; test: Whole-cell [3H]NMS equilibrium competition radioligand binding; settings: [3H]NMS binding
Experimental: To determine the affinity (pKB) of the allosteric modulators for the allosteric site, and their binding cooperativity with ACh (log αACh) at the M1 mAChR, whole cell equilibrium competition binding studies were performed, using [^3H]NMS to label the orthosteric site.
FlpIn Chinese hamster ovary (CHO) cells stably expressing the hM1 mAChR were grown in Dulbecco’s modified Eagle’s medium (DMEM) (Invitrogen, Carlsbad, CA) supplemented with 5% foetal bovine serum (FBS) (Thermo-Trace, Melbourne, Australia) and 300 μg/mL G418 (Invitrogen, Carlsbad, CA). The cells were plated at 50,000 cells per well of 96-well white clear bottom plates (Greiner Bio-one, Kremsmünster, Austria), and were grown overnight. The following day, cells were washed twice with Phosphate Buffered Saline (PBS), and incubated with increasing concentrations of ACh (Sigma) in the absence or presence of increasing concentrations of each modulator and 0.2 nM [^3H]NMS (PerkinElmer Life Sciences) in binding buffer (20 mM HEPES, 100 mM NaCl, 10 mM MgCl2, pH 7.4) for 5 h at room temperature. Nonspecific binding was determined using atropine at the final concentration of 10 μM. The assays were terminated by rapid removal of the unbound radioligand followed by two washes with 100 μL/well ice-cold 0.9% NaCl buffer. Radioactivity was determined by addition of 100 μL/well Ultima gold (PerkinElmer Life Sciences) and counting in a MicroBeta plate reader (PerkinElmer Life Sciences).
Binding interaction studies with allosteric ligands were fitted to the following allosteric ternary complex model [Eq. (2)][15] Y=Bmax|A|/[Λ]+[KAKB/α^′[B]+KB][1+[I]/K1+[B]/KB+α[I][B]/KIKB] where Bmax is the total number of receptors, [A], [B] and [I] denote the concentrations of radioligand, allosteric modulator, and orthosteric ligand, respectively; KA, KB and KI are their respective equilibrium dissociation constants. α’ and α are the affinity cooperativity factors between the allosteric ligand and radioligand or the allosteric modulator and ACh, respectively. Values of α or α’ > 1 denote positive cooperativity, values < 1 but > 0 denote negative cooperativity, and a value of 1 indicates neutral coopera-tivity.

[3] = IP1 accumulation, antilog, in parentheses

Compound: O=c1cc(-c2ccccc2OCc2ccc(-n3cccn3)nc2)ncn1C1CCCCC1O (stereo not drawn) [Compound 27b, 6-(2-((6-(1H-Pyrazol-1-yl)pyridin-3-yl)methoxy)phenyl)-3-(2-hydroxycyclohexyl)pyrimidin-4(3H)-one]
- αβ (functional cooperativity with ACh) (M1 mAChR; antilog, in parentheses): 56
- τB (intrinsic efficacy of the modulator) (M1 mAChR; antilog, in parentheses): 0.4
- log τB (logarithm of intrinsic efficacy of the modulator) (M1 mAChR; operational model): –0.36±0.12
- log αβ (logarithm of functional cooperativity between ACh and modulator) (M1 mAChR; operational model, pKB constrained to binding value): 1.75±0.11
- ΔpEC50 [1 μM]: change in ACh pEC50 in presence of M1 PAM compared to control curve (hM1 mAChR [1]; 1 μM modulator, FlpIn CHO hM1 cells, mean ± SEM, 3 experiments): 0.96±0.18
- activation at 1 µM (hM1 mAChR [1]; 1 μM modulator, FlpIn CHO hM1 cells, mean ± SEM, 3 experiments, read-out: Δbaseline [1 μM]: change in basal response in presence of M1 PAM compared to control curve): 38.5 ± 3.8%
- ΔpEC50 [10 μM]: change in ACh pEC50 in presence of M1 PAM compared to control curve (hM1 mAChR [1]; 10 μM modulator, FlpIn CHO hM1 cells, mean ± SEM, 3 experiments): 1.50±0.32
- activation at 10 µM (hM1 mAChR [1]; 10 μM modulator, FlpIn CHO hM1 cells, mean ± SEM, 3 experiments, read-out: Δbaseline [10 μM]: change in basal response in presence of M1 PAM compared to control curve): 78.6 ± 2.8%
- αβ (functional cooperativity with ACh) (hM1 mAChR [1]; [3]): 112
- τB (intrinsic efficacy of the modulator) (hM1 mAChR [1]; [3]): 3
- log τB (logarithm of intrinsic efficacy of the modulator) (hM1 mAChR [1]; IP1 accumulation, operational model): 0.54±0.04
- log αβ (logarithm of functional cooperativity between ACh and modulator) (hM1 mAChR [1]; IP1 accumulation, operational model, pKB constrained to binding value): 2.05±0.12
- Kb (hM1 mAChR [2]; allosteric ternary complex model, mean ± SEM, read-out: pKB (negative logarithm of the allosteric modulator equilibrium dissociation constant) (converted)): 15.8 µM
- α (binding cooperativity with ACh) (hM1 mAChR [2]; antilog, in parentheses): 151
- log αACh (logarithm of binding cooperativity between ACh and modulator) (hM1 mAChR [2]; mean ± SEM): 2.18±0.19
